Data: US8987193B2, “Nisin derivatives and the use thereof” (University College Cork—National University of Ireland, Cork, priority 2008, dated 2015)
Ends that are not written are not given here.

Legend:
Assay in all cases: Deferred antagonism assay
[1] = system: L. lactis CBC7; format: cell-based; design: key: + = Enhanced bioactivity relative to control; − = Bioactivity equal to or less than control; NA = no activity evident; conditions: producing strain
How it was run: (§1)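 Producer strains replicated on GM17 or GM17 x-gal agar, grown overnight, then overlaid with 0.75% agar seeded with indicator strain. Zone size = diameter of clearing minus 5 mm growth diameter. Purified nisins tested by well diffusion at 37° C overnight; activity in AU/ml from reciprocal of highest active dilution × 20.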

[2] = system: S. aureus CBC4; format: cell-based; design: key: + = Enhanced bioactivity relative to control; − = Bioactivity equal to or less than control; NA = no activity evident; conditions: producing strain
How it was run: as §1

[3] = system: L. lactis CBC8; format: cell-based; design: key: + = Enhanced bioactivity relative to control; − = Bioactivity equal to or less than control; NA = no activity evident; conditions: producing strain
How it was run: as §1

[4] = system: C. sporogenes CBC5; format: cell-based, Clostridium sporogenes; design: key: + = Enhanced bioactivity relative to control; − = Bioactivity equal to or less than control; NA = no activity evident; conditions: producing strain
[5] = system: L. plantarum CBC6; format: cell-based, Lactobacillus plantarum; design: key: + = Enhanced bioactivity relative to control; − = Bioactivity equal to or less than control; NA = no activity evident; conditions: producing strain
How it was run: as §1

[6] = system: L. monocytogenes CBC3; format: cell-based, Listeria monocytogenes; design: key: + = Enhanced bioactivity relative to control; − = Bioactivity equal to or less than control; NA = no activity evident; conditions: producing strain; L. mono CBC3
How it was run: as §1

[7] = system: L. monocytogenes CBC2; format: cell-based, Listeria monocytogenes; design: key: + = Enhanced bioactivity relative to control; − = Bioactivity equal to or less than control; NA = no activity evident; conditions: producing strain; L. mono CBC2
How it was run: as §1

[8] = system: L. monocytogenes CBC1; format: cell-based, Listeria monocytogenes; design: key: + = Enhanced bioactivity relative to control; − = Bioactivity equal to or less than control; NA = no activity evident; conditions: producing strain; L. mono CBC1
How it was run: as §1

[9] = system: Staph. aureus ST528 (MRSA); format: cell-based; conditions: producing strain, diameter of zone minus diameter of bacterial growth (5 mm), average of duplicates
Description: (§2) Deferred antagonism assays were performed by replicating strains on GM17 or GM17 x-gal agar plates and allowing them to grow overnight before overlaying with either GM17/BHI/TS/MH agar (0.75% w/v agar) seeded with the appropriate indicator strain. Zone size was calculated as the diameter of the zone of clearing minus the diameter of bacterial growth (5 mm) For higher throughput screening of N20PXX, XM21VX, XXK22T and XXX banks deferred antagonism assays were performed by replicating strains using a 96 pin replicator (Boekel) or spotting 5 μl of a fresh overnight culture on GM17 agar plates and allowing them to grow overnight. […] Additional sets of indicators were employed to further assess/reassess the bioactivity of a number of strains. […] For well-diffusion assays molten agar was cooled to 48° C. and seeded with the appropriate indicator strain. The inoculated medium was rapidly transferred into sterile Petri plates in 50 ml volumes, allowed to solidify and dried. Wells (4.6 mm in diameter) were then made in the seeded plates. Purified nisin and mutant nisins were resuspended in 0.005% acetic acid, serially diluted, 50 μl volumes were dispensed into the aforementioned wells and the plates incubated at 37° C. overnight. Bioactivity was expressed as arbitrary units/ml (AU/ml) and calculated as the reciprocal of the highest dilution that gave a definite zone multiplied by the conversion factor (i.e. 20 when 50 μl was used) (Ryan et al., 1996).
(§3) As a consequence of the enhanced activities of K22T and K22S, a more in-depth investigation of this region was carried out. Saturation mutagenesis was undertaken to create a bank of nisin A hinge derivatives containing the vast majority of possible amino acid substitutions for each position. Although pPTPL was used successfully for random mutagenesis, its relatively large size of approx 10.5 kb was considered unsuitable for the complete plasmid PCR amplification approach utilized for saturation mutagenesis. A smaller (approx 6 kb) E. coli-L. lactis shuttle vector pCI372 was considered to be potentially more useful. Its suitability with respect to the in trans expression of nisA was confirmed by the ability of pDFO5 to restore the nisin positive phenotype. Saturation mutagenesis was performed on each codon using pDF05 and oligonucleotides (Table 5) that replace the specific codon with a NNK triplet, potentially encoding all 20 standard amino acids. Following complete plasmid amplification and introduction into the intermediate Top10 host, sequence analysis of a pooled bank of pDF05 derivatives confirmed randomization. Introduction of these variants into L. lactis NZ9800 allowed the expression of mutant nisin A peptides for further analysis. […] 46 residue conversions were isolated. All strains, regardless of bioactivity, were assessed with a view to comprehensively assessing the consequences of each individual hinge alteration.
(§4) Values are an average of duplicate experiments and represent zone size (diameter of zone minus diameter of bacterial growth (i.e. 5 mm) relative to that of the NZ9800 pCI372nisA control. X=Mutants not identified.

[10] = system: Staph. aureus DPC5245; format: cell-based; conditions: producing strain; diameter of zone minus 5 mm; average of duplicates; St. aureus DPC5245
Description: as §2, §3, §4

[11] = system: Strep. agalactiae ATCC13813; format: cell-based; conditions: producing strain, diameter of zone minus 5 mm, average of duplicates
Description: as §2, §3, §4

Substance | Bioactivity relative to control [1] | Bioactivity relative to control [2] | Bioactivity relative to control [3] | Bioactivity relative to control [4] | Bioactivity relative to control [5] | Bioactivity relative to control [6] | Bioactivity relative to control [7] | Bioactivity relative to control [8] | zone size relative to that of the NZ9800 pCI372nisA control [9] [%] | zone size relative to that of the NZ9800 pCI372nisA control [10] [%] | zone size relative to that of the NZ9800 pCI372nisA control [11] [%]
K22H: nisin A derivative, hinge substitution K22H (ITSISLCTPGCKTGALMGCNMHTATCHCSIHVSK; cysteine pairing not given here; also: lantibiotic nisin-A; UniProt P13068 24-57, looked up, variant K22H) | − | − | − | − | − | − | − | − | 97 | 97 | 104
M21P: nisin A derivative, hinge substitution M21P (ITSISLCTPGCKTGALMGCNPKTATCHCSIHVSK; cysteine pairing not given here; also: lantibiotic nisin-A; UniProt P13068 24-57, looked up, variant M21P) | − | − | − | − | − | − | − | − | 40 | 32 | 0
K22F: nisin A derivative, hinge substitution K22F (ITSISLCTPGCKTGALMGCNMFTATCHCSIHVSK; cysteine pairing not given here; also: lantibiotic nisin-A; UniProt P13068 24-57, looked up, variant K22F) | − | − | − | − | − | − | − | − | 29 | 56 | 57
M21F: nisin A derivative, hinge substitution M21F (ITSISLCTPGCKTGALMGCNFKTATCHCSIHVSK; cysteine pairing not given here; also: lantibiotic nisin-A; UniProt P13068 24-57, looked up, variant M21F) | − | − | − | − | − | − | − | − | 20 | 21.5 | 0
